“Also recorded” adds a separate entry of the source. Where no end group is shown, it is not given here.
Columns and labels:
AtT20 cells = conditions: cited from earlier work
Source text: (§1) However, much earlier, a fragment of the CART peptide was identified in extracts of sheep hypothalamus.[2] CART was later found to be expressed also in pancreatic islet cells and in nerve fibers innervating the islets.[3]^,[4]^,[5] […] Since then, multiple biological effects of CART have been established.[4]^,[7] Among them is the effect of CART on islet hormone secretion fr ...

INS-1 832/13 cells [1] = assay: Whole-cell capacitance measurement (exocytosis), patch-clamp; assay type: cell-based, rat
Experimental: Whole-cell capacitance measurement was performed in INS-1 832/13 cells using HEKA EPC10 patch-clamp amplifiers with the software Suite Pulse + X-Chart Extension (version 8.6 or later; HEKA, Lambrecht-Pfalz, Germany) as previously described.[40] Briefly, INS-1 832/13 cells were seeded in Nunc plastic petri dishes one day prior to the measurement. The intracellular pipette solution contained 125 mM Cs-glutamate, 10 mM CsCl, 10 mM NaCl, 1 mM MgCl2, 5 mM HEPES, 3 mM Mg-ATP, 0.1 mM cAMP and 0.05 mM EGTA (pH 7.2 with CsOH). The perfusing extracellular solution was composed of 118 mM NaCl, 20 mM tetraethylammonium chloride, 5.6 mM KCl, 2.6 mM CaCl2, 1.2 mM MgCl2, 5 mM HEPES and 5 mM glucose (pH 7.4), and the temperature was maintained at 32°C.

rodent and human islets = conditions: in vivo and in vitro/ex vivo; cited from earlier work
Source text: as §1, with “[…] However, the identity of the CART receptor mediating this effect in beta cells” for “Among them”, “unknown to date.[15] Here, we provide evidence for GPR162 as a” for “the effect of”, “receptor in beta cells.” for “on islet hormone secretion fr ...”

GPR162 = assay: Co-immunoprecipitation of CART and GPR162 in INS-1 832/13 cells; assay type: binding, rat; conditions: 10^-7M CARTp55-102, 30 min at 4°C, BS3 cross-link, precipitation with CART antibody, GPR162 blot; n = 3 biological replicates
Experimental: INS-1 832/13 cell lysates were incubated with 10^−7M CARTp55-102 for 30 min at 4°C and then cross-linked with 1 mM BS[3] for 30 min at room temperature, then precipitated using biotin-labelled CART antibody (code H003-62, dilution 1:5000, Phoenix Pharmaceuticals) bound to streptavidin-coated magnetic Dynabeads (Thermo Fisher). Cells lysates were then washed five times in ice-cold PBS and membrane proteins were extracted using MemPER Plus (Thermo Scientific). Protein concentration was then measured using BCA assay (BioRad, Hercules, CA) and 20 μg loaded on a 10% Mini-PROTEAN TGX Stain-Free gel (BioRad). After electrophoresis (200 V for 40 min) and transfer, the PVDF membrane was blocked in TBS-T with 5% fat free dry milk. Primary antibody (anti-rabbit GPR162, code TA331838, 1:100 dilution, Origene, Rockville, MD) was dissolved in 1XTBS-T with 5% BSA (overnight at 4°C). Secondary antibody (anti-rabbit IgG; 1:2500 dilution) was diluted in 1XTBS-T with 5% dry milk. All wash steps were for 10 min in 1XTBS-T.

KATO III cells = conditions: KATO III cells, RNA interference of Gpr160; cited from earlier work
Source text: When studying neuropathic pain, Yosten et al.[11] found GPR160 to be necessary for CARTp-mediated cell activation in cell culture. […] Information on GPR160 is scarce, but it has been reported to be a potential marker for prostate cancer,[24] where it is involved in apoptosis and cell-cycle arrest.[25] […] Recently, the notion of GPR160 being the ...

INS-1 832/13 cells [2] = assay: Glucose-stimulated insulin secretion (GSIS) in INS-1 832/13; assay type: cell-based, rat; conditions: 10^-7M CARTp55-102 24 h before GSIS, 16.7 mM glucose, 10 μM IBMX
Experimental: GSIS was measured 72 h after Cartpt KD. INS-1 832/13 cells were washed twice and incubated for 2 h in 2.8 mM glucose HEPES-buffered saline solution (HBSS): 114 mM NaCl, 4.7 mM KCl, 1.2 mM KH2PO4, 1.16 mM MgSO4, 20 mM HEPES, 2.5 mM CaCl2, 25.5 mM NaHCO3, 0.2% BSA, pH 7.2, followed by 1-h stimulation in the same buffer containing 2.8 mM, 16.7 mM glucose, 16.7 mM glucose and 10 μM IBMX. In a separate experiment, control and Gpr162 KD cells were incubated with 10^−7M CARTp55-102 for 24 h before GSIS. Insulin concentrations in supernatant were determined using ELISA (Mercodia, Uppsala, Sweden) and were normalized to total protein content of each well (determined by Bio-Rad protein assay, BioRad).
Insulin from INS-1 832/13 cells and mouse islets were analyzed using ELISA (Mercodia).

rats = conditions: cited from earlier work
Source text: However, much earlier, a fragment of the CART peptide was identified in extracts of sheep hypothalamus.[2] CART was later found to be expressed also in pancreatic islet cells and in nerve fibers innervating the islets.[3]^,[4]^,[5] […] Since then, multiple biological effects of CART have been established.[4]^,[7] Among them is the effect of CART on islet hormone secretion fr ... || When studying neuropathic pain, Yosten et al.[11] found GPR160 to be necessary for CARTp-mediated cell activation in cell culture. […] Information on GPR160 is scarce, but it has been reported to be a potential marker for prostate cancer,[24] where it is involved in apoptosis and cell-cycle arrest.[25] […] Recently, the notion of GPR160 being the ... || (+ 1 further places)

beta cells in islets = conditions: between beta cells within same islet; cited from earlier work
Source text: Our observation that CART affects cytoskeletal rearrangement is novel. Without doubt, the actin network is of great importance for properly functioning insulin secretion.[34]^,[35]^,[36]^,[37] In the present study, a large number of genes involved in cytoskeletal rearrangement were affected by both Cartpt KD and Gpr162 KD. […] Furthermore, Cartpt KD also affects genes crucial for regulation of exocytosis,[14] a process indeed dependent on ...

CARTp55-102: Rat, mouse CARTp55-102 (Phoenix Pharmaceuticals, Cat#003-62); human form Cat#003-60; cocaine- and amphetamine-regulated transcript peptide (IPIYEKKYGQVPMCDAGEQCAVRKGARIGKLCDCPRGTSCNSFLLKCL; ends and bridges not checked; cysteine pairing not given here)
Displacement of radiolabeled CART (AtT20 cells): radiolabeled CART to be displaced by CARTp55-102
CART-induced increase in capacitance / exocytosis after Gpr162 KD (INS-1 832/13 cells [1]; Gpr162 KD cells, 10^-7M CARTp55-102 1 h, n = 13-14 cells): abolished; also recorded: near-complete abolishment
Increase in capacitance (INS-1 832/13 cells [1]; control cells, 10^-7M CARTp55-102 for 1 h, 5 mM glucose, 32°C, n = 17 cells): approximately 1.3 -fold
Glucagon secretion (rodent and human islets): reduces glucagon secretion
Insulin secretion (rodent and human islets): increases insulin secretion
Co-immunoprecipitated GPR162 (GPR162): stronger binding for GPR162 in the CARTp-treated cells than the binding observed in control cells
c-FOS expression after Gpr160 RNA interference (KATO III cells): RNA interference of Gpr160 prevented CART from activating c-FOS expression
Insulinotropic effect of CARTp55-102 on glucose and IBMX-stimulated secretion in Gpr162 KD cells (INS-1 832/13 cells [2]; n = 6): abolished
Insulinotropic effect of CARTp55-102 on glucose and IBMX-stimulated secretion in Gpr162 KD cells (INS-1 832/13 cells [2]; n = 6, listed as CART): near-complete abolishment
Anorexigenic effects of CART on meal microstructure after Gpr160 knockdown (rats; AAV-mediated knockdown of Gpr160 in dorsal vagal complex, rat): partially attenuates the anorexigenic effects of CART on meal microstructure
Anorexigenic effect (rats): anorexigenic effects
Synchronization of Ca2+ oscillations (beta cells in islets): increased synchronization of Ca^2+ oscillations
